Measurements taken from patent US20190127354A1, “2,4,6,7-TETRASUBSTITUTED QUINOLINE COMPOUNDS AS INHIBITORS OF DNA […]” (FUNDACIÓN PARA LA INVESTIGACIÓN MÉDICA APLICADA, priority 2015, published 2019).

What was measured:
Experiment in all cases: Cell proliferation assay (CellTiter 96 Aqueous One Solution)
Type in all cases: cell-based
[1] = test system: HepG2; settings: Homo sapiens, hepatocellular carcinoma cells, 48 hours of treatment
Protocol: (§1) Cell proliferation was analyzed after 48 hours of in vitro treatment using the CellTiter 96 Aqueous One Solution Cell Proliferation Assay (Promega, Madison, W). This is a colorimetric method for determining the number of viable cells in proliferation.
(§2) For the assay, suspension cells were cultured by triplicate at a density of 1×10^6 cells/ml in 96-well plates (100.000 cells/well, 100 μl/well), except for HepG2, Hep3B and PLC/PRF/5 cell lines which were cultured at a density of 3000 cells/well, 100 μl/well).
(§3) Adherent cells were obtained from 80-90% confluent flasks and 100 μl of cells were seeded at a density of 5000 cells/well in 96-well plates by triplicate. Before addition of the compounds, adherent cells were allowed to attach to the bottom of the wells for 12 hours. In all cases, only the 60 inner wells were used to avoid any border effects.
(§4) After 48 hours of treatment, plates with suspension cells were centrifuged at 800g for 10 minutes and medium was removed. The plates with adherent cells were flicked to remove medium. Then, cells were incubated with 100 μl/well of medium and 20 μl/well of CellTiter 96 Aqueous One Solution reagent. After 1-3 hours of incubation at 37° C., absorbance was measured at 490 nm in a 96-well plate reader. The background absorbance was measured in wells with only cell line medium and solution reagent. Data was calculated as a percentage of total absorbance of treated cell/absorbance of non treated cells.

[2] = test system: CEMO-1; settings: acute lymphocytic leukemia (ALL) cells, 48 hours of treatment
Protocol: as §1, §2, §3, §4

[3] = test system: Hep3B; settings: Homo sapiens, hepatocellular carcinoma cells, 48 hours of treatment
Protocol: as §1, §2, §3, §4

COc1cc2c(N(C)C3CCN(C)CC3)cc(-c3ccc(C)o3)nc2cc1OCCCN1CCCC1 [Compound 1-02]
GI50 [1]: 1 to 10 µM | GI50 [2]: ≥ 10 µM | GI50 [3]: 1 to 10 µM
